From article PMC6237173, “Synthesis of novel 6,7-dimethoxy-4-anilinoquinolines as potent c-Met inhibitors” (Journal of Enzyme Inhibition and Medicinal Chemistry, 2018)

Key:
[1] = tested on: MCF-7 (human breast cancer) cell line; assay: Cell proliferation assay (MTT), MCF-7; type: cell-based; conditions: MCF7, 48 h exposure, n = 3 (mean ± SD), read-out: Proliferative inhibition IC50, MCF-7
Description: (§1) The anti-proliferative activities of the prepared compounds (12a-12s) were evaluated against A549, MCF-7 and MKN-45 cell lines by MTT assay in vitro. Briefly, tumour cells were cultured to log phase in RPMI 1640 medium supplemented with 10% foetal bovine serum (FBS). After diluting to 2 × 10^4 cells mL^−1 with the complete medium, 100 µL of the obtained cell suspension was added to each well of 96-well culture plates. Subsequently, incubation was performed at 37 °C in 5% CO2 for 24 h before the anti-proliferative assessment. Tested samples at pre-set concentrations were added to 6 wells with cabozantinib as a positive reference. After 48 h exposure period, 40 µL of PBS containing 2.5 mg mL^−1 of MTT was added to each well. Four hours later, 100 µL extraction solution (10% SDS-5% isobutyl alcohol-0.010M HCl) was added. After an overnight incubation at 37°C, the absorbance was measured at a wavelength of 570 nm with an ELISA microplate reader. All compounds were tested three times in each tumour cell lines. The IC50 values were the averages of three determinations and calculated by concentration-response curve fitting method.
(§2) All the synthesised compounds […] were evaluated for their antiproliferation activities against A549 (human lung cancer), MCF-7 (human breast cancer) and MKN-45 (human gastric cancer) cell lines by MTT assay, using cabozantinib as the positive control.

[2] = tested on: MKN-45 (human gastric cancer) cell line; assay: Cell proliferation assay (MTT), MKN-45; type: cell-based; conditions: 48 h exposure, n = 3 (mean ± SD), read-out: Proliferative inhibition IC50, MKN-45
Description: as §1, §2

[3] = tested on: A549 (human lung cancer) cell line; assay: Cell proliferation assay (MTT), A549; type: cell-based; conditions: 48 h exposure, n = 3 (mean ± SD), read-out: Proliferative inhibition IC50, A549
Description: as §1, §2

[4] = molecular target: T1, c-Met kinase (Homo sapiens, UniProt P08581); assay: c-Met inhibition assay (Caliper motility shift assay); type: biochemical; conditions: for c-Met inhibition % Inhibition (10 μΜ): 10 μΜ compound; for c-Met inhibition % Inhibition (10 μΜ) / IC50: n = 3 (mean ± SD); for c-Met inhibitory activity in words: SAR statement, ortho-substituted compounds
T1 construct: purchased Carna
Description: A Caliper motility shift assay was applied to test the potency of synthesised compounds against c-Met kinase. Briefly, the compounds were dissolved in DMSO (Sigma) at 0.5 mM concentration, and then were diluted 50× to the final desired highest inhibitor concentration (10 μM) in reaction by DMSO. For all compounds, 100 μL of the diluted compound solution in tubes was transferred to a well on a 96-well plate (Corning) and was serially diluted 10× by transferring 10 μL dilution to 90 μL DMSO in the next well. 100 μL DMSO was added to two empty wells in the same 96-well plate for no compound control and no enzyme control. The plate was marked as source plate. 10 μL of compound solution from source plate was transferred to a new 96-well plate as the intermediate plate. […] After that, 5 μL solution from each well of the intermediate plate was transferred to a 384-well plate (Corning) as the assay plate in duplicates.c-Met kinase (Carna) was added in 1× kinase base buffer to prepare 2.5× enzyme solution, and FAM-labled peptide (GL Biochem) and ATP (Sigma) were added in 1× kinase base buffer to prepare 2.5× peptide solution. 10 μL of 2.5× enzyme solution was added to each well of the 384-well assay plate that already contained 5 μL of compound in 10% DMSO, and then incubated at room temperature for 10 min. […] The data were collected on Caliper and the conversion data were copied from Caliper program.
IC50 values were calculated from three independent experiments by fitting the data in XLfit with the following equation: Y = Bottom + (Top-Bottom)/(1 + (IC50/X)^HillSlope).

T1 sequence (P08581 25-1390): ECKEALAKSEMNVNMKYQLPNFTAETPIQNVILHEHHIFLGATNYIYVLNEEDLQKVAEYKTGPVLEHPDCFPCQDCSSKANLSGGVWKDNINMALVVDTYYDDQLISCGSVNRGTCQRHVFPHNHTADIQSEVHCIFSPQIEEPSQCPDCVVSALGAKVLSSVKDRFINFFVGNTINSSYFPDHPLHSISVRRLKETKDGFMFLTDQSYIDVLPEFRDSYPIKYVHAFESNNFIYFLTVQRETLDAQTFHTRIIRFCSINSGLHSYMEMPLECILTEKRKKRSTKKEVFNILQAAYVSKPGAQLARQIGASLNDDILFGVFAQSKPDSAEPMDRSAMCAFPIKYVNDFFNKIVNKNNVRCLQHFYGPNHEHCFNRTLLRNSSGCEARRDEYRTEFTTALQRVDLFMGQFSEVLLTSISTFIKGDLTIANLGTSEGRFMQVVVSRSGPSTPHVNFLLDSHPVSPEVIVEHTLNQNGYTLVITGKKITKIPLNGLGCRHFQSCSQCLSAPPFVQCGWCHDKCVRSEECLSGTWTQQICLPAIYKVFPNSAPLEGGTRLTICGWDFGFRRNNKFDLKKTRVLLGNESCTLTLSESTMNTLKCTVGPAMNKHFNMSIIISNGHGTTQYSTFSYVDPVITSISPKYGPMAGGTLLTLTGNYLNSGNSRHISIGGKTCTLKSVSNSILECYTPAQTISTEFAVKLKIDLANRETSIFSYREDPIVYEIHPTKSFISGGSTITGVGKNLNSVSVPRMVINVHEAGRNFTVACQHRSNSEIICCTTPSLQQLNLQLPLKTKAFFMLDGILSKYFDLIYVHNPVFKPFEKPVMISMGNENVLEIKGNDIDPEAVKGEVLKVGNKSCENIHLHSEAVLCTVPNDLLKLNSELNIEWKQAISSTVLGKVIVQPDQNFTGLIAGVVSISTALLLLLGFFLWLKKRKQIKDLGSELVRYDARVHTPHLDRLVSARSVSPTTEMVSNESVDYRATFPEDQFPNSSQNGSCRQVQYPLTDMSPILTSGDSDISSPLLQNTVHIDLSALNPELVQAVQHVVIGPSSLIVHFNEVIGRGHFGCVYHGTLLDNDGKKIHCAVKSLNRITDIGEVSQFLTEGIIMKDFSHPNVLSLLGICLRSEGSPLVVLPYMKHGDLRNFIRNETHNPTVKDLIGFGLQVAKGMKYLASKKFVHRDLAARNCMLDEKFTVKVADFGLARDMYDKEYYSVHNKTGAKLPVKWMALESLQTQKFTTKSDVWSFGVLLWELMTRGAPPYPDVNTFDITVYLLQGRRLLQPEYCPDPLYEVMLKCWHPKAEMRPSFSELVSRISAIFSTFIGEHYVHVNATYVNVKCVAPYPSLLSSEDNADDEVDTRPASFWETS

Structure (SMILES)	IC50 [1] [µM]	IC50 [2] [µM]	IC50 [3] [µM]	melting point [°C]	c-Met inhibition % Inhibition (10 μΜ) [4] [%]	c-Met inhibitory activity in words [4]	IC50 [4] [nM]	fold lower c-Met activity than compound 12c ([4]; ratio of c-Met IC50 values, versus 12c)
COc1cc2nccc(Nc3ccc4nc(-c5ccccc5F)[nH]c4c3)c2cc1OC [Compound 12a, N-(2–(2-fluorophenyl)-1H-benzo[d]imidazol-6-yl)-6,7-dimethoxyquinolin-4-amine]	> 100	> 100	> 100	247 to 249	16.9 ± 3.5	diminished activity		
CCc1ccc(-c2nc3ccc(Nc4ccnc5cc(OC)c(OC)cc45)cc3[nH]2)cc1 [Compound 12m, N-(2–(4-ethylphenyl)-1H-benzo[d]imidazol-6-yl)-6,7-dimethoxyquinolin-4-amine]	18.4 ± 2.1	14.9 ± 0.7	12.5 ± 1.3	210 to 212	95.0 ± 0.3		56 ± 12	
COc1cc2nccc(Nc3ccc4nc(-c5c(Cl)cccc5Cl)[nH]c4c3)c2cc1OC [Compound 12q, N-(2–(2,6-dichlorophenyl)-1H-benzo[d]imidazol-6-yl)-6,7-dimethoxyquinolin-4-amine]	> 100	> 100	> 100	254 to 257	37.0 ± 4.0	loss of activity		
COc1cc2nccc(Nc3ccc4nc(-c5ccc(Cl)cc5)[nH]c4c3)c2cc1OC [Compound 12f, N-(2–(4-chlorophenyl)-1H-benzo[d]imidazol-6-yl)-6,7-dimethoxyquinolin-4-amine]	29.2 ± 1.4	39.5 ± 2.5	32.4 ± 3.6	330 to 332	63.8 ± 0.7		930 ± 100	about 9 fold
COc1cc2nccc(Oc3ccc(NC(=O)C4(C(=O)Nc5ccc(F)cc5)CC4)cc3)c2cc1OC [cabozantinib, reference compound]	7.2 ± 0.5	11.8 ± 1.4	4.5 ± 0.8					
COc1cc2nccc(Nc3ccc4nc(-c5cccc(F)c5)[nH]c4c3)c2cc1OC [Compound 12b, N-(2–(3-fluorophenyl)-1H-benzo[d]imidazol-6-yl)-6,7-dimethoxyquinolin-4-amine]	48.6 ± 5.2	57.5 ± 1.9	45 ± 3.3	286 to 288	62.8 ± 1.2		1200 ± 400	
COc1cc2nccc(Nc3ccc4nc(-c5ccccc5Cl)[nH]c4c3)c2cc1OC [Compound 12d, N-(2–(2-chlorophenyl)-1H-benzo[d]imidazol-6-yl)-6,7-dimethoxyquinolin-4-amine]	> 100	> 100	> 100	287 to 290	17.4 ± 3.7			
COc1cc2nccc(Nc3ccc4nc(-c5cccc(Cl)c5)[nH]c4c3)c2cc1OC [Compound 12e, N-(2–(3-chlorophenyl)-1H-benzo[d]imidazol-6-yl)-6,7-dimethoxyquinolin-4-amine]	63.5 ± 4.8	85.7 ± 3.7	53.8 ± 5	250 to 252	54.5 ± 6.9		4800 ± 500	
COc1cc2nccc(Nc3ccc4nc(-c5c(F)cccc5F)[nH]c4c3)c2cc1OC [Compound 12p, N-(2–(2,6-difluorophenyl)-1H-benzo[d]imidazol-6-yl)-6,7-dimethoxyquinolin-4-amine]	> 100	> 100	> 100	208 to 210	25.9 ± 1.5	loss of activity		
